Series [1] has as its system Candida albicans C627. In kind it is cell-based. Conditions: for MIC C. albicans: C627, 24 h.
Series [2] has as its system Staphylococcus aureus RN4220. The class given is cell-based. The settings on record: for MIC S. aureus: RN4220, 24 h. The protocol: (§1) Any of the art-known methods for measuring antimicrobial activity of peptides can be used in characterizing the peptides of the invention. In these examples, conventional methods were used to determine the minimal inhibitory concentration (MIC) of a peptide in a liquid medium (Amsterdam. Antibiotics in Laboratory Medicine, Williams and Wilkins, Baltimore (1991) 72-78). Briefly, overnight cultures of the test organisms (described below) were diluted to produce an inoculum containing approximately 10^4 to 10^5 organisms. The inoculum size was confirmed by counting the number of organisms on plates that were inoculated at the same time as the liquid cultures.
(§2) The concentration of peptide was measured by assaying for free amino groups using a dinitrophenylation assay, with polymyxin B serving as a standard. Doubling dilutions of peptide were performed (32 μg/ml-0.25 μg/ml) in 100 μl volumes in a 96-well mictrotiter plate, and all wells were subsequently inoculated with the diluted culture of the test organism. After 24 hours of incubation at 37° C., the assay was read. The MIC value is the concentration of peptide at which the growth of the test organism was reduced by 50%. The number of cells in the culture inoculum was calculated from the plate count after incubating the plate for 24 hours at 37° C. The medium used for cell culture and dilution in this assay was Luria broth (LB). Each peptide was tested three times against each organism, and the MIC values presented below are the mean values of the three experiments.

In series [3] the test system is Staphylococcus epidermidis C621. The class given is cell-based. Conditions: for MIC S. epidermidis: C621, 24 h. The protocol:
as §1, §2

The test system of series [4] is Pseudomonas aeruginosa K799. The class given is cell-based. Conditions: for MIC P. aeruginosa: K799, 24 h. How it is done: as §1, §2
For series [5], the system named is E. coli UB1005. The class given is cell-based. The settings on record: for MIC E. coli: UB1005, 24 h. The protocol: as §1, §2
Series [6] in a line: Mortality after injection of peptide in mice. Conditions: 200 μg peptide IP. In kind it is in vivo. The protocol:
The ability of indolicidin and variants to protect against LPS-induced endotoxemia was assessed in vivo. Mice (8-10 weeks old) were injected intraperitoneally (IP) with 20 mg D-galactosamine (Dgal) to sensitive them to LPS according to the model of Galanos (Galanos, C., M. A., Freudenberg and W. Reutter, 1979, Galactosamine sensitization to the lethal effects of endotoxin. Proc. Natl. Acad. Sci. USA 76:5939), followed by 200 μg peptide in 100 μl. Immediately afterwards LPS (10 μg) in 100 μl was injected. The mice were observed 24 hours after injections and survivors noted. […] When Dgal and LPS were also injected, that 200 μg of indolicidin reduced mortality reduced at 24 hours from 100% in controls to 60%.

The subject of series [7] is human red blood cells. The series can be described thus: Lysis of red blood cells. The class given is cell-based. How it is done: Freshly collected human blood was mixed with heparin and centrifuged to remove the buffy coat. The resulting erythrocytes were washed three times in 0.85% saline and stored at 4° C. Serial dilutions of the peptides in saline were prepared in round bottomed microtitre plates using 100 μl volumes. Red blood cells were diluted with saline to 1/25 of the packed volume of cells and 50 μl of red blood cells were added to each well. Plates were incubated while rocking at 37° C., and the concentration of peptide required for red blood cell lysis of more than 80% of cells (i.e., visible lysis) was determined at 4 and 24 hours (Table 7).

In brackets after ≈: the same amount, converted by molar mass. Like-named read-outs stand apart in the source and are kept apart here. Where a SMILES comes first, the peptide text is derived from it. Where no end group is shown, it is not given here. [ ]: non-standard residue; d: D form. Where only a bound is given, the exact number is not on record here.

With `CC[C@@H](C)[C@@H](N)C(=O)N[C@@H](CC(C)C)C(=O)N[C@@H](CCCCN)C(=O)N[C@@H](CCCCN)C(=O)N[C@@H](Cc1c[nH]c2ccccc12)C(=O)N1CCC[C@H]1C(=O)N[C@@H](Cc1c[nH]c2ccccc12)C(=O)N[C@@H](Cc1c[nH]c2ccccc12)C(=O)N1CCC[C@H]1C(=O)N[C@@H](Cc1c[nH]c2ccccc12)C(=O)N[C@@H](CCCNC(=N)N)C(=O)N[C@@H](CCCNC(=N)N)C(=O)N[C@@H](CCCCN)C(=O)OC` [CP-11DC] (H-[dI]LKKWPWWPWRRK-OMe; N-terminus assumed), the “MIC C. albicans” value in series [1] stood at 8 µg/mL (≈ 4.22 µM). For the same molecule, the “MIC S. aureus” value in series [2] worked out at 4 µg/mL (≈ 2.11 µM). Also, in series [3], the “MIC S. epidermidis” value was found to be 2 µg/mL (≈ 1.06 µM). In addition, the “MIC P. aeruginosa” value in series [4] came to 4 µg/mL (≈ 2.11 µM). Besides, in series [5], the “MIC E. coli” value came to 4 µg/mL (≈ 2.11 µM).

Consider `CC[C@@H](C)[C@@H](N)C(=O)N[C@@H](CC(C)C)C(=O)N[C@@H](CCCCN)C(=O)N[C@@H](CCCCN)C(=O)N[C@@H](Cc1c[nH]c2ccccc12)C(=O)N1CCC[C@H]1C(=O)N[C@@H](Cc1c[nH]c2ccccc12)C(=O)N[C@@H](Cc1c[nH]c2ccccc12)C(=O)N1CCC[C@H]1C(=O)N[C@@H](Cc1c[nH]c2ccccc12)C(=O)N[C@@H](CCCNC(=N)N)C(=O)N[C@@H](CCCNC(=N)N)C(=O)N[C@@H](CCCCN)C(=O)O` [CP-11D] (H-[dI]LKKWPWWPWRRK-OH), for which, in series [1], the “MIC C. albicans” value came out at 8 µg/mL (≈ 4.25 µM). Also, the “MIC S. aureus” value in series [2] stood at 4 µg/mL (≈ 2.13 µM). In addition, the “MIC S. epidermidis” value in series [3] was found to be 2 µg/mL (≈ 1.06 µM). The “MIC P. aeruginosa” value in series [4] was found to be 4 µg/mL (≈ 2.13 µM). Moreover, the “MIC E. coli” value in series [5] turned out to be 4 µg/mL (≈ 2.13 µM). Also, in series [6], the “Mortality after injection of peptide” value was “did not cause mortality”.

Take `CC[C@H](C)[C@H](N)C(=O)N[C@@H](CC(C)C)C(=O)N1CCC[C@H]1C(=O)N[C@@H](Cc1c[nH]c2ccccc12)C(=O)N[C@@H](CCCCN)C(=O)N[C@@H](Cc1c[nH]c2ccccc12)C(=O)N1CCC[C@H]1C(=O)N[C@@H](Cc1c[nH]c2ccccc12)C(=O)N[C@@H](Cc1c[nH]c2ccccc12)C(=O)N1CCC[C@H]1C(=O)N[C@@H](Cc1c[nH]c2ccccc12)C(=O)N[C@@H](CCCNC(=N)N)C(=O)N[C@@H](CCCNC(=N)N)C(=O)OC` [Indolicidin-C]: the “MIC C. albicans” value in series [1] was >32 µg/mL. Besides, the “Lowest concentration causing lysis, 4 hours” value in series [7] (lysis of more than 80% of cells (visible lysis), 37° C., 4 hours) was 32 µg/mL. For the same molecule, the “Lowest concentration causing lysis, 24 hours” value in series [7] (lysis of more than 80% of cells (visible lysis), 37° C., 24 hours) was 32 µg/mL. Besides, the “MIC S. aureus” value in series [2] was determined as 4 µg/mL (≈ 2.08 µM). Also, the “MIC S. epidermidis” value in series [3] was 1 µg/mL (≈ 0.52 µM). Further, the “MIC P. aeruginosa” value in series [4] is >32 µg/mL. Besides, in series [5], the “MIC E. coli” value was found to be 4 µg/mL (≈ 2.08 µM).

In the case of `CC[C@@H](C)[C@@H](N)C(=O)N[C@@H](CC(C)C)C(=O)N1CCC[C@H]1C(=O)N[C@@H](Cc1c[nH]c2ccccc12)C(=O)N[C@@H](CCCCN)C(=O)N[C@@H](Cc1c[nH]c2ccccc12)C(=O)N1CCC[C@H]1C(=O)N[C@@H](Cc1c[nH]c2ccccc12)C(=O)N[C@@H](Cc1c[nH]c2ccccc12)C(=O)N1CCC[C@H]1C(=O)N[C@@H](Cc1c[nH]c2ccccc12)C(=O)N[C@@H](CCCNC(=N)N)C(=O)N[C@@H](CCCNC(=N)N)C(=O)OC` [Indolicidin-DC], the “MIC C. albicans” value in series [1] was >32 µg/mL. Besides, the “MIC S. aureus” value in series [2] stood at 8 µg/mL (≈ 4.16 µM). For the same molecule, the “MIC S. epidermidis” value in series [3] turned out to be 2 µg/mL (≈ 1.04 µM). The “MIC P. aeruginosa” value in series [4] is >32 µg/mL. For the same molecule, the “MIC E. coli” value in series [5] amounted to 4 µg/mL (≈ 2.08 µM).

On to `CC[C@@H](C)[C@@H](N)C(=O)N[C@@H](CC(C)C)C(=O)N1CCC[C@H]1C(=O)N[C@@H](Cc1c[nH]c2ccccc12)C(=O)N[C@@H](CCCCN)C(=O)N[C@@H](Cc1c[nH]c2ccccc12)C(=O)N1CCC[C@H]1C(=O)N[C@@H](Cc1c[nH]c2ccccc12)C(=O)N[C@@H](Cc1c[nH]c2ccccc12)C(=O)N1CCC[C@H]1C(=O)N[C@@H](Cc1c[nH]c2ccccc12)C(=O)N[C@@H](CCCNC(=N)N)C(=O)N[C@@H](CCCNC(=N)N)C(=O)O` [Indolicidin-D], for which the “MIC C. albicans” value in series [1] was >32 µg/mL. In addition, in series [2], the “MIC S. aureus” value was found to be 4 µg/mL (≈ 2.1 µM). In addition, in series [3], the “MIC S. epidermidis” value stood at 2 µg/mL (≈ 1.05 µM). For the same molecule, the “MIC P. aeruginosa” value in series [4] was >32 µg/mL. In addition, the “MIC E. coli” value in series [5] stood at 8 µg/mL (≈ 4.19 µM). The “Mortality after injection of peptide” value in series [6] is listed as “did not cause mortality”.

Take `CC[C@H](C)[C@H](N)C(=O)N[C@@H](CC(C)C)C(=O)N1CCC[C@H]1C(=O)N[C@@H](Cc1c[nH]c2ccccc12)C(=O)N[C@@H](CCCCN)C(=O)N[C@@H](Cc1c[nH]c2ccccc12)C(=O)N1CCC[C@H]1C(=O)N[C@@H](Cc1c[nH]c2ccccc12)C(=O)N[C@@H](Cc1c[nH]c2ccccc12)C(=O)N1CCC[C@H]1C(=O)N[C@@H](Cc1c[nH]c2ccccc12)C(=O)N[C@@H](CCCNC(=N)N)C(=O)N[C@@H](CCCNC(=N)N)C(=O)O` [Indolicidin-R, reference compound]: the “MIC C. albicans C627” value in series [1] is >32 µg/mL. The “MIC S. aureus RN4220” value in series [2] turned out to be 16 µg/mL (≈ 8.39 µM). Moreover, in series [3], the “MIC S. epidermidis C621” value turned out to be 16 µg/mL (≈ 8.39 µM). Also, in series [4], the “MIC P. aeruginosa K799” value was >32 µg/mL. In addition, the “MIC E.coli UB1005” value in series [5] is 32 µg/mL (≈ 16.8 µM).

FFKKFPFFPFRRK [CP-24]: the “MIC S. aureus” value in series [2] amounted to 8 µg/mL. Moreover, the “MIC P. aeruginosa” value in series [4] is 32 µg/mL. The “MIC E. coli” value in series [5] worked out at 8 µg/mL.

As to ILKKWPWWPWKWKK [CP-13], in series [1], the “MIC C. albicans” value is >32 µg/mL. Besides, in series [7], the “Lowest concentration causing lysis, 4 hours” value was >128 µg/mL and the “Lowest concentration causing lysis, 24 hours” value worked out at 128 µg/mL. Moreover, the “MIC S. aureus” value in series [2] is >32 µg/mL. Besides, the “MIC S. epidermidis” value in series [3] was 4 µg/mL. Moreover, the “MIC P. aeruginosa” value in series [4] is >32 µg/mL. Also, the “MIC E. coli” value in series [5] was determined as 8 µg/mL.

In the case of ILKKWPWWPWRRK-NH2 [CP-11N], the “MIC S. aureus” value in series [2] is >32 µg/mL. In addition, the “MIC S. epidermidis” value in series [3] came out at 8 µg/mL. Also, in series [5], the “MIC E. coli” value came out at 1 µg/mL.

With ILPWKKWPWWRWRR [CP-3R], the “MIC C. albicans C627” value in series [1] is > 32 µg/mL. Further, the “Partial killing observed in dilutions down to” value in series [1] (purified recombinant peptide, C. albicans C627) turned out to be 8 µg/mL. Moreover, the “MIC S. aureus RN4220” value in series [2] was 8 µg/mL. For the same molecule, in series [3], the “MIC S. epidermidis C621” value was 4 µg/mL. For the same molecule, the “MIC P. aeruginosa K799” value in series [4] amounted to 8 µg/mL. In addition, in series [5], the “MIC E.coli UB1005” value worked out at 8 µg/mL.

As to ILPWKWPWYVRR [CP-IA], the “MIC C. albicans” value in series [1] was >32 µg/mL. Moreover, in series [2], the “MIC S. aureus” value was >32 µg/mL. In series [3], the “MIC S. epidermidis” value was >32 µg/mL. Also, in series [4], the “MIC P. aeruginosa” value was >32 µg/mL. For the same molecule, the “MIC E. coli” value in series [5] was >32 µg/mL.

The values above are taken from patent US7390873B2, “Antimicrobial cationic peptides” (University of British Columbia, priority 1995, dated 2008).
